According to US20260091011A1, “HYDROALCOHOLIC SINGLE PHASE GEL COMPOSITIONS FOR TOPICAL DELIVERY OF DICLOFENAC” (HALEON CH SARL, priority 2022, published 2026):

Assay: Cumulative skin permeation study in a 3 ml permeation cell (Example 2)
Type: in vitro ADME, human
Settings: 2% w/w diclofenac sodium hydroalcoholic gels
Procedure: In a cumulative skin permeation study in a 3 ml permeation cell, cumulative permeation through a skin sample from a human donor was studied. Five different compositions were tested in six replicates. Cumulative permeation was measured at 4 hours (hrs) and at 24 hrs after application of a dose. However, cumulative permeation at 4 hrs was below the measurement threshold in this experiment and thus is not reported for Example 2. All formulations were applied in a dose of 6 microlitres onto skin sample of a defined surface area. The following formulations were studied: […]

Row | Substance | effect of non-ionic emulsifier on cumulative permeation of diclofenac at 24 hrs
1 | Polysorbate 20 [Kolliphor PS 20] | permeation retarding effect
2 | macrogol cetostearyl ether 20 [Kolliphor CS 20] | more pronounced
